In ChEMBL document CHEMBL6092221, “Discovery of a Novel Macrocyclic Noncovalent CDK7 Inhibitor for Cancer Therapy” (J Med Chem, 2024):

Legend:
[1] = Oral bioavailability in female Balb/c nude mouse at 5 mg/kg; format: ADME, organism-based; settings: in vivo
[2] = molecular target: Mitogen-activated protein kinase 15 (Homo sapiens) (UniProt Q8TD08); experiment: Inhibition of Erk8 (unknown origin) at 200 nM relative to control; values are per cent of control
[3] = Half life in human HCC70 cells xenografted in female nu/nu mouse plasma at 1 mg/kg, po administered once daily; format: ADME, organism-based
[4] = molecular target: Cyclin-dependent kinase 14/Cyclin-Y (Homo sapiens) (UniProt O94921+Q8ND76); experiment: Inhibition of CDK14/Cyclin Y (unknown origin) at 200 nM relative to control; values are per cent of control
[5] = Plasma stability in human assessed as half life; format: ADME, cell-free
[6] = Drug concentration in rat small intestine at 5 mg/kg, po measured after 2 hrs; format: ADME, organism-based; settings: read-out: Ct
[7] = Half life in mouse at 1 mg/kg, iv; format: ADME, organism-based; settings: in vivo
[8] = molecular target: Cyclin-Y/Cyclin-dependent kinase 16 (Homo sapiens, UniProt Q00536); experiment: Inhibition of CDK16/CyclinY (unknown origin); format: protein-complex assay
[9] = Clearance in rat at 1 mg/kg, iv; format: ADME, organism-based; settings: in vivo
[10] = AUC (0 to t) in human OVCAR-3 cells xenografted in female Balb/c nude mouse plasma at 5 mg/kg, po administered once daily; format: ADME, organism-based
[11] = Cmax in human OVCAR-3 cells xenografted in female Balb/c nude mouse plasma at 5 mg/kg, po administered once daily; format: ADME, organism-based
[12] = molecular target: Cyclin-dependent kinase 7 (Homo sapiens) (UniProt P50613); experiment: Inhibition of CDK7 (unknown origin) at 200 nM relative to control; values are per cent of control
[13] = Volume of distribution at steady state in rat at 1 mg/kg, iv; format: ADME, organism-based; settings: in vivo, read-out: Vdss
OVCAR-3 [14] = experiment: Antitumor activity against human OVCAR-3 cells xenografted in female Balb/c nude mouse assessed as tumor growth inhibition at 10 mg/kg, po administered once daily and measured on day 22; format: functional; settings: OVCAR-3, 528 h, time 22 day, read-out: TGI
[15] = Volume of distribution at steady state in female Balb/c nude mouse at 1 mg/kg, iv; format: ADME, organism-based; settings: in vivo, read-out: Vdss
[16] = molecular target: Cyclin-dependent kinase 4/cyclin D1 (Homo sapiens) (UniProt P11802+P24385); experiment: Inhibition of CDK4/CyclinD1 (unknown origin) at 200 nM relative to control; values are per cent of control
Cytochrome P450 2C9 = Cytochrome P450 2C9 (Homo sapiens, UniProt P11712); experiment: Inhibition of CYP2C9 (unknown origin); format: ADME
[17] = molecular target: Ribosomal protein S6 kinase alpha-3 (Homo sapiens, UniProt P51812); experiment: Inhibition of RSK2 (unknown origin) at 200 nM relative to control; values are per cent of control
[18] = Clearance in mouse at 1 mg/kg, iv; format: ADME, organism-based; settings: in vivo
[19] = AUC(0 to 48 hrs) in Sprague-Dawley rat at 300 mg/kg, po; format: ADME, organism-based; settings: in vivo
[20] = Cmax in mouse at 5 mg/kg, po; format: ADME, organism-based; settings: in vivo
[21] = molecular target: Homeodomain-interacting protein kinase 4 (Homo sapiens, UniProt Q8NE63); experiment: Inhibition of HIPK4 (unknown origin)
OVCAR-3 [22] = experiment: Antitumor activity against human OVCAR-3 cells xenografted in female Balb/c nude mouse assessed as tumor growth inhibition at 5 mg/kg, po administered once daily and measured on day 22; format: functional; settings: OVCAR-3, 528 h, time 22 day, read-out: TGI
[23] = AUC(0 to t) in female Balb/c nude mouse at 5 mg/kg, po; format: ADME, organism-based; settings: in vivo
[24] = Cmax in human HCC70 cells xenografted in female nu/nu mouse plasma at 10 mg/kg, po administered once daily; format: ADME, organism-based
[25] = molecular target: Voltage-gated inwardly rectifying potassium channel KCNH2 (Homo sapiens, UniProt Q12809); experiment: Inhibition of hERG; format: toxicity
[26] = Oral bioavailability in mouse at 5 mg/kg; format: ADME, organism-based; settings: in vivo
[27] = Volume of distribution at steady state in dog at 0.2 mg/kg, iv; format: ADME, organism-based, Canis lupus familiaris; settings: in vivo, read-out: Vdss
[28] = AUC (0 to t) in human OVCAR-3 cells xenografted in female Balb/c nude mouse plasma at 2 mg/kg, po administered once daily; format: ADME, organism-based
[29] = Cmax in human OVCAR-3 cells xenografted in female Balb/c nude mouse plasma at 20 mg/kg, po administered once daily; format: ADME, organism-based
[30] = Cmax in human OVCAR-3 cells xenografted in female Balb/c nude mouse plasma at 10 mg/kg, po administered once daily; format: ADME, organism-based
[31] = Toxicity in female Balb/c nude mouse xenografted with human OVCAR-3 cells assessed as body weight loss at 2 to 20 mg/kg, po administered once daily and measured for 3 weeks; format: organism-based; settings: in vivo, 504 h, dose 2-20 mg/kg
[32] = molecular target: CDK4/Cyclin D3 (Homo sapiens) (UniProt P11802+P30281); experiment: Inhibition of CDK4/Cyclin D3 (unknown origin) at 200 nM relative to control; values are per cent of control
[33] = molecular target: T1, Mitogen-activated protein kinase 7 (Homo sapiens, UniProt Q13164); experiment: Inhibition of Erk5 (unknown origin) at 200 nM relative to control; values are per cent of control
Target sequence in this assay (Q13164 2-816 limits assumed): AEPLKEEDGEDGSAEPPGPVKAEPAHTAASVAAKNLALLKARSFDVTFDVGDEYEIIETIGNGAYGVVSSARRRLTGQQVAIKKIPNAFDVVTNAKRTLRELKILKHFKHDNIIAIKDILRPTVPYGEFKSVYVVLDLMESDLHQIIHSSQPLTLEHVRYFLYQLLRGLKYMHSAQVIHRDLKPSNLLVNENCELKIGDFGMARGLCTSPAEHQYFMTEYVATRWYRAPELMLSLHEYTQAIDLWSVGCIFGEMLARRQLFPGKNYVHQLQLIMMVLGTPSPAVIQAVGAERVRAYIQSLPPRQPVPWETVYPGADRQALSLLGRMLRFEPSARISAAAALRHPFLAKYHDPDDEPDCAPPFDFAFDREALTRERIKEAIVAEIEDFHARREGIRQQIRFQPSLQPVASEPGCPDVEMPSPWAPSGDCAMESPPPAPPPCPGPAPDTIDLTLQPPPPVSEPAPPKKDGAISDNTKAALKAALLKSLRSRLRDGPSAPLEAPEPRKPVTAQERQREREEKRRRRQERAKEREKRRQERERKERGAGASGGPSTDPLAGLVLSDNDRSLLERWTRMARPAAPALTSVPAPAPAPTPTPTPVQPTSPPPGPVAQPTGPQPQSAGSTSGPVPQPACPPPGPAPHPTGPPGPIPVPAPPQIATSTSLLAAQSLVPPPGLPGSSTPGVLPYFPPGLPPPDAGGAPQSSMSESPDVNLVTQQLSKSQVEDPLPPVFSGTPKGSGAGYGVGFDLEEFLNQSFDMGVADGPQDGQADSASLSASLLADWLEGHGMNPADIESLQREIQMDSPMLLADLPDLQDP

[34] = molecular target: Serine/threonine-protein kinase D2 (Homo sapiens) (UniProt Q9BZL6); experiment: Inhibition of PRKD2 (unknown origin) at 200 nM relative to control; values are per cent of control
Cytochrome P450 2C19 = Cytochrome P450 2C19 (Homo sapiens, UniProt P33261); experiment: Inhibition of CYP2C19 (unknown origin); format: ADME
[35] = molecular target: T1, Mitogen-activated protein kinase 7; experiment: Inhibition of Erk5 (unknown origin)
Target sequence in this assay (Q13164 whole entry): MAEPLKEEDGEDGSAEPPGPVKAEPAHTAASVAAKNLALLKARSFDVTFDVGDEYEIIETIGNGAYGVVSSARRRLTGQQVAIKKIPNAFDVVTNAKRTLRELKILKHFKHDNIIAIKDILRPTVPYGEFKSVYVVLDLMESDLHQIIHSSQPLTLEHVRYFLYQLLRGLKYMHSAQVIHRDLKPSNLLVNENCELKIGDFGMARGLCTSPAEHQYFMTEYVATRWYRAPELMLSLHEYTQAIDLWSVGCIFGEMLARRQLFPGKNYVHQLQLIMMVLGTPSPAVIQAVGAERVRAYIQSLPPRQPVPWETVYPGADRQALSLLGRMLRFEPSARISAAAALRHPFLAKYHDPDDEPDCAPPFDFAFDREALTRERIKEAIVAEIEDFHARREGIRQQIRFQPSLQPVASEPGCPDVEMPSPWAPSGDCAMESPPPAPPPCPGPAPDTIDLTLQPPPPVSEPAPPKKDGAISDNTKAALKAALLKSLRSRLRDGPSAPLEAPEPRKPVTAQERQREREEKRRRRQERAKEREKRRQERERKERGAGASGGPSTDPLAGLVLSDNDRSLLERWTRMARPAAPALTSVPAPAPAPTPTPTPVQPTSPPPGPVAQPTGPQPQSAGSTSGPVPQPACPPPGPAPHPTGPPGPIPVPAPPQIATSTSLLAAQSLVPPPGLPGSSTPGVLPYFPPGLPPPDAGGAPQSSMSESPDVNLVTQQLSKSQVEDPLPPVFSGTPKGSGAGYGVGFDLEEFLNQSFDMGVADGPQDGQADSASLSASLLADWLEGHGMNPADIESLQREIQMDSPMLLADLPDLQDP

[36] = molecular target: Serine/threonine-protein kinase D1 (Homo sapiens) (UniProt Q15139); experiment: Inhibition of PRKD1 (unknown origin) at 200 nM relative to control; values are per cent of control
[37] = Drug concentration in rat plasma at 5 mg/kg, po measured after 2 hrs; format: ADME, organism-based
[38] = Clearance in dog at 0.2 mg/kg, iv; format: ADME, organism-based, Canis lupus familiaris; settings: in vivo
[39] = Half life in human HCC70 cells xenografted in female nu/nu mouse plasma at 10 mg/kg, po administered once daily; format: ADME, organism-based
Mus musculus = experiment: In vivo inhibition of CDK2 phosphorylation in human HCC70 cells xenografted in female Balb/c nude mouse administered once daily for 7 days; format: functional, organism-based; settings: dose 2-10 mg/kg, time 7.0 day
[40] = molecular target: Cyclin-dependent kinase 9 (Homo sapiens, UniProt P50750); experiment: Inhibition of CDK9 (unknown origin)
[41] = Drug concentration in rat plasma at 5 mg/kg, po measured after 0.5 hrs; format: ADME, organism-based

Sequence of Cyclin-dependent kinase 9 (P50750 whole entry): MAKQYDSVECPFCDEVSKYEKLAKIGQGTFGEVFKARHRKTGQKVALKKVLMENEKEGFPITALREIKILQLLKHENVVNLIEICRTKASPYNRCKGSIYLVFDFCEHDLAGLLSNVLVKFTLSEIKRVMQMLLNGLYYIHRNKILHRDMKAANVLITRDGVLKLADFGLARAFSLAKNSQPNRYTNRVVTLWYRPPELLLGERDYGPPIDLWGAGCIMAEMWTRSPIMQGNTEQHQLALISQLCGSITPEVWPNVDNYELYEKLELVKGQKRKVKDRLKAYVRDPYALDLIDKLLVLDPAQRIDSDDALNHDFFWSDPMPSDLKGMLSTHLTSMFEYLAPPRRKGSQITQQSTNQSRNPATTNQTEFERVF
Sequence of Serine/threonine-protein kinase D1 (Homo sapiens) (Q15139 whole entry): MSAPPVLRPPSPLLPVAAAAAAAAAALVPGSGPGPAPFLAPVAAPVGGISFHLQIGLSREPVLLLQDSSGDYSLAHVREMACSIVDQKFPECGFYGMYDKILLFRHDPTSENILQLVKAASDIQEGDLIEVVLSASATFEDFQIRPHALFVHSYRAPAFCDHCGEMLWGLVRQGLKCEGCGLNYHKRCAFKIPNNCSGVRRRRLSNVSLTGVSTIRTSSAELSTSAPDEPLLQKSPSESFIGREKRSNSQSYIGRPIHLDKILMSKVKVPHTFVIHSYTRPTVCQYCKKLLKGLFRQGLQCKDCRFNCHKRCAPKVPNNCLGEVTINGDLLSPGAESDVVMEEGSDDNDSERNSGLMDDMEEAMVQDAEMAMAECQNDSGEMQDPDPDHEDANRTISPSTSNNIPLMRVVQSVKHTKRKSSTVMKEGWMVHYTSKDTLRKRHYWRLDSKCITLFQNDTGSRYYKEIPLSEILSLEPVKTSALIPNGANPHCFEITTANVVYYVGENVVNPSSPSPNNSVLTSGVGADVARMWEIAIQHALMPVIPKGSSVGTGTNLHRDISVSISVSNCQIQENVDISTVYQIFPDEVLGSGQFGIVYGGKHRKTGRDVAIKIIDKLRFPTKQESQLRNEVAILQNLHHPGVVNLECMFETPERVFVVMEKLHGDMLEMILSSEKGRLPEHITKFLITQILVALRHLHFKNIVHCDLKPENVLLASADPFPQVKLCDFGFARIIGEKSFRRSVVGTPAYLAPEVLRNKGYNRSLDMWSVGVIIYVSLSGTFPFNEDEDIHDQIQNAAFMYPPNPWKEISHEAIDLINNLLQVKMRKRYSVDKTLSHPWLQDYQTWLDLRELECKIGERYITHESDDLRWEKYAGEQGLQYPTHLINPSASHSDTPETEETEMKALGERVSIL
Sequence of Ribosomal protein S6 kinase alpha-3 (P51812 whole entry): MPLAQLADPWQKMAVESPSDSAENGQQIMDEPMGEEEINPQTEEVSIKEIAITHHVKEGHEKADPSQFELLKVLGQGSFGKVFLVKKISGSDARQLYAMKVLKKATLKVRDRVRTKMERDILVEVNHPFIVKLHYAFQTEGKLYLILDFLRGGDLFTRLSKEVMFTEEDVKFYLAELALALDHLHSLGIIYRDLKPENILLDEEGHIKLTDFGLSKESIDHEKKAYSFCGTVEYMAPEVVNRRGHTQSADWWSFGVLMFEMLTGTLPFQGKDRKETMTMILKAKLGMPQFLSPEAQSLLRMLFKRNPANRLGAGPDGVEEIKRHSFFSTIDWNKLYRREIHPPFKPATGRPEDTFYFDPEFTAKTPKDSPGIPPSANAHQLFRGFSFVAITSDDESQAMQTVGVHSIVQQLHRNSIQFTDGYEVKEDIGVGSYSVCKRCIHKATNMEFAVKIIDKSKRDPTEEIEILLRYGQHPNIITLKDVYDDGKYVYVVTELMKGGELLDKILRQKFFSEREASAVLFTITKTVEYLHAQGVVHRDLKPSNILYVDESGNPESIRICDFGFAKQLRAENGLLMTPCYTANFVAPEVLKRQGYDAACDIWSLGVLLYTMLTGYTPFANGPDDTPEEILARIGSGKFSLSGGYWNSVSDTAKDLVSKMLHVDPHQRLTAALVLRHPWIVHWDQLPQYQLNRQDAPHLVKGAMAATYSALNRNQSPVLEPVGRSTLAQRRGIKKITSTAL
Sequence of Cytochrome P450 2C19 (P33261 whole entry): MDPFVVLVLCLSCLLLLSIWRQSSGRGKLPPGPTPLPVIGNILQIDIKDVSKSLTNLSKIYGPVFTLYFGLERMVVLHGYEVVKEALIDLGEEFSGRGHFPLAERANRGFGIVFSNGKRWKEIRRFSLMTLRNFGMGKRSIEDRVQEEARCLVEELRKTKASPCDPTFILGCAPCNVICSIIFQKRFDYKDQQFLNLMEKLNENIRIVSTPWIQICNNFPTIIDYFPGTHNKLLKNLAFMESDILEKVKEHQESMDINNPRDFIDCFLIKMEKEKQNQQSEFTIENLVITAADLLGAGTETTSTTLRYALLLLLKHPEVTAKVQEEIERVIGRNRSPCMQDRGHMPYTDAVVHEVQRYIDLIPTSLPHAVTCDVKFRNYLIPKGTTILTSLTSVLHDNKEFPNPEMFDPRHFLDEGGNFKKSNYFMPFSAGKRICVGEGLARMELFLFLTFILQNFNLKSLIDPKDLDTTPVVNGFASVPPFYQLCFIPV
Sequence of Mitogen-activated protein kinase 15 (Homo sapiens) (Q8TD08 whole entry): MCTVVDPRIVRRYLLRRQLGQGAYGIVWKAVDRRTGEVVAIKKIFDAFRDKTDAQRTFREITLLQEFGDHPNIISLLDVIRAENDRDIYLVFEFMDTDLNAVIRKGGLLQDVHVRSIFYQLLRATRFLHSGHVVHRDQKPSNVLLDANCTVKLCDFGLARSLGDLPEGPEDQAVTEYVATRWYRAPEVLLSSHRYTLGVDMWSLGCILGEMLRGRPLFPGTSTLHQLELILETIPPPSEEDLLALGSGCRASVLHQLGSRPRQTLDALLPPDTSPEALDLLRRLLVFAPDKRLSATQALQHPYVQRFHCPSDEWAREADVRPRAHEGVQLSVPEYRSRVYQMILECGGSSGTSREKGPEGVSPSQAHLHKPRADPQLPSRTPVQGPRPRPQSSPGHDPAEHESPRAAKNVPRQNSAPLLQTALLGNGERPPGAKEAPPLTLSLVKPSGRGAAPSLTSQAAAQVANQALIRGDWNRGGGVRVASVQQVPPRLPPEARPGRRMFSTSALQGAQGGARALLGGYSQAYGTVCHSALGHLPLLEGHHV
Sequence of Cyclin-dependent kinase 7 (Homo sapiens) (P50613 whole entry): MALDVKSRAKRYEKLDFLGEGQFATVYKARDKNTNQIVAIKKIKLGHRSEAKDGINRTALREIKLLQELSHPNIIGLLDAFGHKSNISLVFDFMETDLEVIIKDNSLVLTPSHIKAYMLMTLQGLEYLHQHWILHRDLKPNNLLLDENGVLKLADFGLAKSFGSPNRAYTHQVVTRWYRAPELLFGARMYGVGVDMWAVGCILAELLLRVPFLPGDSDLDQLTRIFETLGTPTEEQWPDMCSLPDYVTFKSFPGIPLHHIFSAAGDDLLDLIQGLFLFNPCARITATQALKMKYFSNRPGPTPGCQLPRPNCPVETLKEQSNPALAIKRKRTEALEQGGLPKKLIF

CN1CC(F)(F)CCN(C)[C@H]2CC[C@@H](C2)Nc2ncc(C(F)(F)F)c(n2)-c2c[nH]c3c(P(C)(C)=O)c(ccc23)C1=O
bioavailability [1]: 78.7% | residual activity [2]: 0.85% | half-life [3]: 2 h | residual activity [4]: 1.3% | half-life [5]: > 4.82 h | concentration at 2 h [6]: 3230 ng/g | half-life [7]: 2 h | IC50 [8]: 2.8 nM | clearance [9]: 39.9 mL/min/kg | AUC(0-t) [10]: 694 ng·h/mL | Cmax [11]: 400 ng/mL | residual activity [12]: 0.35% | Vd [13]: 2.6 L/kg | inhibition in vivo at 10 mg/kg (OVCAR-3 [14]): 111% | Vd [15]: 1.7 L/kg | residual activity [16]: 2.7% | IC50 (Cytochrome P450 2C9): 41900 nM | residual activity [17]: 28% | clearance [18]: 52.6 mL/min/kg | AUC(0-t) [19]: 15300 ng·h/mL | Cmax [20]: 355 ng/mL | IC50 [21]: 55 nM | inhibition in vivo at 5 mg/kg (OVCAR-3 [22]): 111% | AUC(0-t) [23]: 938 ng·h/mL | Cmax [24]: 401 ng/mL | IC50 [25]: 9940 nM | bioavailability [26]: 78.7% | Vd [27]: 0.24 L/kg | AUC(0-t) [28]: 329 ng·h/mL | Cmax [29]: 1690 ng/mL | Cmax [30]: 580 ng/mL | Activity [31]: Non-toxic | residual activity [32]: 17% | residual activity [33]: 5.6% | residual activity [34]: 20% | IC50 (Cytochrome P450 2C19): 30900 nM | IC50 [35]: 26.5 nM | residual activity [36]: 19% | concentration at 2 h [37]: 68.8 ng/mL | clearance [38]: 1.2 mL/min/kg | half-life [39]: 1.7 h | Activity (Mus musculus): Dose-dependent-effect | IC50 [40]: 258 nM | concentration at 0.5 h [41]: 33.9 ng/mL
